{
  "source": "patent US11414377B2",
  "about": "“Modulator of metabotropic and ionotropic transmembrane receptors and use thereof” (IBD THERAPEUTICS LLC, priority 2018, dated 2022)",
  "key": {"male balb/c mice": {"tested_on": "male balb/c mice", "experiment": "Open field test, functional state of the central nervous system of mice", "format": "in vivo", "settings": "for The number of acts of defecation within 15 minutes: control 0.2 ± 0.1; for The number of washes within 15 minutes (grooming): control 8.0 ± 1.5; for Number of standing up on hind legs in 15 minutes (vertical activity): control 67.1 ± 3.5; for Number of squares crossed within 15 minutes (horizontal activity): control 443.3 ± 15.6; for General physical activity for 15 minutes: control 518.4 ± 15.3", "protocol": "For the final confirmation of the safety of Compound I at the oral administration, the study of the effect of Compound I on the functional state of the central nervous system of mice in the open field test was carried out. “Open field” test consists in the evaluation of motor and research activities, orientation reaction and emotional reactivity in the registration of spontaneous behaviour of animals. The study was carried out according to the standard technique (Buresh Y, Bureshova O., Joseph P. Houston. Methods and main experiments to study the brain and behavior (Moscow, 1991, pp. 119-122).\nThe study was carried out on male balb/c mice, the individual weight of which deviates from the mean value within the sex of no more than ±10%.\nCompound I was administered once, intragastrically. The evaluation of the effect on the central nervous system was carried out 2 hours after the administration of Compound I in the study of the approximate research behaviour of mice in the “open field”. The experimental “open field” facility was a chamber of 100×100×60 cm in size, with a square floor and white walls. The floor of the chamber is divided into 16 squares, in each square there is the round orifice having 6 cm in diameter. The chamber is illuminated by the incandescent electric lamp having a power of 100 watts, located at a height of 1 m from the floor of the chamber. The animal was placed in one of the corners of the chamber and for 15 minutes the number of horizontal squares crossed by it (horizontal activity), getting up on its hind legs (vertical activity), washing (grooming), and defecation by the number of fecal balls were recorded. Then the total motor activity was calculated, the activity was calculated as the sum of the crossed horizontal squares, standing on the hind legs and washing.\nThe obtained data were checked using the Grubb's test for the presence of the largest or smallest abnormal observation (ejection) in the sample. Values determined “to be eliminated” in this test were not used for further assay. For all data, descriptive statistics was used: a mean value (M) and standard error of the mean value (m) were counted up. The normality of distribution of the values obtained in the course of the experiment was checked with the aid of the Kolmogorov-Smirnov test. In the case of normal distribution, Student's t-test (t-test) was used to evaluate the inter-group distinctions. In the case of the distribution that is other than the normal one the Kruskalll-Wallis test with Dann's post hoc test was used for the comparison of several groups. Distinctions were determined at 5% at a level of confidence."}, "TRPM8 ion channel": {"molecular_target": "T1, TRPM8 ion channel (Homo sapiens, UniProt Q7Z2W7)", "T1 construct": "expressed in transfected cells; host or cells: HEK293 cells", "T1 sequence (Q7Z2W7 whole entry)": "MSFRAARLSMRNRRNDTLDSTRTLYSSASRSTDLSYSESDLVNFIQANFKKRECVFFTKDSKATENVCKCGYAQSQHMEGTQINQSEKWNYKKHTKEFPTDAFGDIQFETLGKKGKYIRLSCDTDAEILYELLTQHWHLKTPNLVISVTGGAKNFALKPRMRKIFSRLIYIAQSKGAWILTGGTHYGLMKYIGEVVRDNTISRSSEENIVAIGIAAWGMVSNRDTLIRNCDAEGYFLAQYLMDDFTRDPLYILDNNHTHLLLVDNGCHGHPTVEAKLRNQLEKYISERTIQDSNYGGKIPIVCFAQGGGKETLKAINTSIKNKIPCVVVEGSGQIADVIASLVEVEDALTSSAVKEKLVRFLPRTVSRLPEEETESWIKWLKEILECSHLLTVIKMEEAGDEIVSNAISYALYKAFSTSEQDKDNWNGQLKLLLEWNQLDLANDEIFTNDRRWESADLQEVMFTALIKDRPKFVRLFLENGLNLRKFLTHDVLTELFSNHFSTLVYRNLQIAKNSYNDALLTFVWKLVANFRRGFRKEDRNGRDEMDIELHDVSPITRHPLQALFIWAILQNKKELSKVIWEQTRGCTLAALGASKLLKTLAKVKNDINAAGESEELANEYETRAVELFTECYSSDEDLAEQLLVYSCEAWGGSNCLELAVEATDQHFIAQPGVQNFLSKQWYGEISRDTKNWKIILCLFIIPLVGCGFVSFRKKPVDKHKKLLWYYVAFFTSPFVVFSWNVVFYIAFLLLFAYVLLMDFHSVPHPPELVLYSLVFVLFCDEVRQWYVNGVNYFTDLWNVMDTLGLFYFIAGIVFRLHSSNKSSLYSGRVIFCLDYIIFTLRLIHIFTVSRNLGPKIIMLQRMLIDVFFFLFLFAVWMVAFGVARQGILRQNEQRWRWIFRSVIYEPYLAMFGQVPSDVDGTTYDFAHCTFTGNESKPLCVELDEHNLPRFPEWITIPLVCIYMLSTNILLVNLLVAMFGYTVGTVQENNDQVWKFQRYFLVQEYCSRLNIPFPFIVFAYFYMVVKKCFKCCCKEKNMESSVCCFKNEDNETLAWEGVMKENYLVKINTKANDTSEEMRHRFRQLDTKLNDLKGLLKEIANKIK", "experiment": "Effect on activity of TRPM8 ion channel (Fluo-4 AM calcium)", "format": "cell-based", "settings": "TRPM8 expressing HEK293 cells; Icilin 100 nM; intracellular calcium; read-out: IC50, blocker of TRPM8 ion channel", "protocol": "Compound I was dissolved in DMSO to a concentration of 100 mM; then the stock solution was diluted with DMSO to prepare a test solution with the concentration of substance equal to 50 μM. TRPM8 expressing HEK293 cells were used in the experiment. At the day of the experiment, the cells were incubated with a 4 μM of a solution of fluorescent indicator Fluo-4 AM. The cells after the preincubation with Icilin (100 nM), the known agonist of TRPM8 ion channel, were incubated with the test compound. The activity of receptors was determined by the intracellular calcium concentration using fluorescence spectroscopy (Behrendt, H. J. et al. (2004), Br. J. Pharmacol., 141: 737-745. FINAL)."}, "human NK2R": {"molecular_target": "T2, human NK2R (Homo sapiens, UniProt P21452)", "T2 construct": "expressed in transfected cells; host or cells: CHO cells", "T2 sequence (P21452 1-398)": "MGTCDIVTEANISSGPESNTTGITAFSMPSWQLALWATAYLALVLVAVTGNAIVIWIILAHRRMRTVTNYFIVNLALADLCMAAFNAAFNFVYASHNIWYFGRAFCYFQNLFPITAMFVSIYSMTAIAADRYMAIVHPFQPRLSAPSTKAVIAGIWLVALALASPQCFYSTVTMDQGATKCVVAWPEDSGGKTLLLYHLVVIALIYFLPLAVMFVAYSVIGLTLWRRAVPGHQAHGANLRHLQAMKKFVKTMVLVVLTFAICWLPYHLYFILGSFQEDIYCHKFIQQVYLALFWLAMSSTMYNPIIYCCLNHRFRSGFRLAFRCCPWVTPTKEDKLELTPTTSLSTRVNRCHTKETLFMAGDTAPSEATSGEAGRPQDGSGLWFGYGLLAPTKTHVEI", "experiment": "Effect on activity of tachykinin receptor type 2 (intracellular calcium, fluorescence)", "format": "cell-based", "settings": "CHO cells expressing human NK2R, agonist [Nleu10]-NKA-(4-10) 10 nM, read-out: IC50, antagonist of tachykinin receptor type 2", "protocol": "Compound I was dissolved in DMSO to a concentration of 100 mM; then the stock solution was serially diluted with DMSO. The maximal start concentration of substance is […]. The effect was determined at 8 concentrations of test compound, each concentration was investigated twice. CHO cells expressing human NK2R were used in the experiment, said cells after the preincubation with an agonist [Nleu10]-NKA-(4-10) (10 nM) were incubated with the test compound. The activity of receptors was determined by the intracellular calcium concentration using fluorescence spectroscopy (Biochem Biophys Res Commun. 1994 May 16; 200(3):1512-20)."}, "kappa opioid receptor": {"molecular_target": "kappa opioid receptor (Homo sapiens, UniProt P41145)", "sequence (P41145 whole entry)": "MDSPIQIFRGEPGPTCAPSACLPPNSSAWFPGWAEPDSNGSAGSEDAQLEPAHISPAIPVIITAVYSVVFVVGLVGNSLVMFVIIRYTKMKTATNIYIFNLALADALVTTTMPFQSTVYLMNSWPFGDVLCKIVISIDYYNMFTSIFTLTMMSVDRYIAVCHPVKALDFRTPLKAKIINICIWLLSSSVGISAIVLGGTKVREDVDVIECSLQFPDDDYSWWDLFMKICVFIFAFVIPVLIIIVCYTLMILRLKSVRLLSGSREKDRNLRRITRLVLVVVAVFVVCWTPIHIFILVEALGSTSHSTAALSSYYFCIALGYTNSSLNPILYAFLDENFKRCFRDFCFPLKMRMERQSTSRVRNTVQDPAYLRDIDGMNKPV", "experiment": "Kappa-opioid receptor radioligand displacement ([3H]U69593)", "format": "binding"}, "[1]": {"experiment": "Pharmacokinetics and tissue bioavailability after oral administration to rats", "format": "in vivo", "settings": "oral 10 mg/kg (therapeutic dose)", "protocol": "To confirm low systemic availability of Compound 1, the study of pharmacokinetics and bioavailability of Compound 1 was carried out after the oral administration to rats in a dose of 10 mg/kg. The study was carried out on 18 male Vistar rats. Blood sampling in the animals was carried out at given time points for 24 h after the administration of the preparation. The content of Compound 1 in plasma samples was analyzed by HPLC-MS/MS, the […] was 1 ng/ml."}, "[2]": {"settings": "0.75 mg/kg intragastrically 2 hours prior"}, "[3]": {"settings": "1.5 mg/kg intragastrically 2 hours prior"}, "[4]": {"settings": "2.5 mg/kg intragastrically 2 hours prior"}, "[5]": {"settings": "5 mg/kg intragastrically 2 hours prior"}, "[6]": {"settings": "10 mg/kg intragastrically 2 hours prior"}, "[7]": {"settings": "20 mg/kg intragastrically 2 hours prior"}, "[8]": {"settings": "30 mg/kg intragastrically 2 hours prior"}},
  "data": [
    {"compound": "O=C(Cc1ccc(O)cc1)N[C@@H](Cc1ccccc1)C(=O)NCCc1ccccc1", "note": "[Compound I, 2-phenylethylamide N-(p-hydroxyphenylacetyl)phenylalanine]", "values": [
      {"measurement": "The number of acts of defecation within 15 minutes", "setting": "male balb/c mice; [2]", "result": "0.2 ± 0.1"},
      {"measurement": "The number of washes within 15 minutes (grooming)", "setting": "male balb/c mice; [2]", "result": "7.2 ± 1.4"},
      {"measurement": "Number of standing up on hind legs in 15 minutes (vertical activity)", "setting": "male balb/c mice; [2]", "result": "69.9 ± 4.3"},
      {"measurement": "Number of squares crossed within 15 minutes (horizontal activity)", "setting": "male balb/c mice; [2]", "result": "468.5 ± 13.0"},
      {"measurement": "General physical activity for 15 minutes", "setting": "male balb/c mice; [2]", "result": "545.6 ± 16.5"},
      {"measurement": "The number of acts of defecation within 15 minutes", "setting": "male balb/c mice; [3]", "result": "1.6 ± 0.6"},
      {"measurement": "The number of washes within 15 minutes (grooming)", "setting": "male balb/c mice; [3]", "result": "8.5 ± 1.6"},
      {"measurement": "Number of standing up on hind legs in 15 minutes (vertical activity)", "setting": "male balb/c mice; [3]", "result": "63.0 ± 4.2"},
      {"measurement": "Number of squares crossed within 15 minutes (horizontal activity)", "setting": "male balb/c mice; [3]", "result": "414.2 ± 24.1"},
      {"measurement": "General physical activity for 15 minutes", "setting": "male balb/c mice; [3]", "result": "485.7 ± 24.8"},
      {"measurement": "The number of acts of defecation within 15 minutes", "setting": "male balb/c mice; [4]", "result": "0.0 ± 0.0"},
      {"measurement": "The number of washes within 15 minutes (grooming)", "setting": "male balb/c mice; [4]", "result": "8.6 ± 1.6"},
      {"measurement": "Number of standing up on hind legs in 15 minutes (vertical activity)", "setting": "male balb/c mice; [4]", "result": "72.8 ± 3.5"},
      {"measurement": "Number of squares crossed within 15 minutes (horizontal activity)", "setting": "male balb/c mice; [4]", "result": "459.5 ± 19.0"},
      {"measurement": "General physical activity for 15 minutes", "setting": "male balb/c mice; [4]", "result": "540.9 ± 18.0"},
      {"measurement": "The number of acts of defecation within 15 minutes", "setting": "male balb/c mice; [5]", "result": "1.5 ± 0.2"},
      {"measurement": "The number of washes within 15 minutes (grooming)", "setting": "male balb/c mice; [5]", "result": "2.3 ± 1.0"},
      {"measurement": "Number of standing up on hind legs in 15 minutes (vertical activity)", "setting": "male balb/c mice; [5]", "result": "71.7 ± 4.4"},
      {"measurement": "Number of squares crossed within 15 minutes (horizontal activity)", "setting": "male balb/c mice; [5]", "result": "480.6 ± 22.1"},
      {"measurement": "General physical activity for 15 minutes", "setting": "male balb/c mice; [5]", "result": "554.6 ± 23.9"},
      {"measurement": "The number of acts of defecation within 15 minutes", "setting": "male balb/c mice; [6]", "result": "0.0 ± 0.0"},
      {"measurement": "The number of washes within 15 minutes (grooming)", "setting": "male balb/c mice; [6]", "result": "6.8 ± 1.3"},
      {"measurement": "Number of standing up on hind legs in 15 minutes (vertical activity)", "setting": "male balb/c mice; [6]", "result": "66.1 ± 3.3"},
      {"measurement": "Number of squares crossed within 15 minutes (horizontal activity)", "setting": "male balb/c mice; [6]", "result": "449.2 ± 15.6"},
      {"measurement": "General physical activity for 15 minutes", "setting": "male balb/c mice; [6]", "result": "522.1 ± 16.5"},
      {"measurement": "The number of acts of defecation within 15 minutes", "setting": "male balb/c mice; [7]", "result": "0.0 ± 0.0"},
      {"measurement": "The number of washes within 15 minutes (grooming)", "setting": "male balb/c mice; [7]", "result": "6.2 ± 1.3"},
      {"measurement": "Number of standing up on hind legs in 15 minutes (vertical activity)", "setting": "male balb/c mice; [7]", "result": "64.9 ± 4.0"},
      {"measurement": "Number of squares crossed within 15 minutes (horizontal activity)", "setting": "male balb/c mice; [7]", "result": "479.4 ± 29.3"},
      {"measurement": "General physical activity for 15 minutes", "setting": "male balb/c mice; [7]", "result": "545.5 ± 30.4"},
      {"measurement": "The number of acts of defecation within 15 minutes", "setting": "male balb/c mice; [8]", "result": "0.0 ± 0.0"},
      {"measurement": "The number of washes within 15 minutes (grooming)", "setting": "male balb/c mice; [8]", "result": "5.9 ± 1.4"},
      {"measurement": "Number of standing up on hind legs in 15 minutes (vertical activity)", "setting": "male balb/c mice; [8]", "result": "69.0 ± 3.8"},
      {"measurement": "Number of squares crossed within 15 minutes (horizontal activity)", "setting": "male balb/c mice; [8]", "result": "448.4 ± 16.4"},
      {"measurement": "General physical activity for 15 minutes", "setting": "male balb/c mice; [8]", "result": "523.3 ± 16.6"},
      {"measurement": "Toxic influence on approximate-research behaviour in the open field test", "setting": "male balb/c mice; intragastric administration, 0.75-30 mg/kg, no statistically significant differences to control", "result": "did not have the toxic influence"},
      {"measurement": "IC50", "setting": "TRPM8 ion channel", "result": 62, "unit": "µM"},
      {"measurement": "IC50", "setting": "human NK2R", "result": 6.4, "unit": "µM"},
      {"measurement": "IC50", "setting": "kappa opioid receptor", "result": 7.1, "unit": "µM"},
      {"measurement": "Penetration into the brain", "setting": "[1]", "result": "does not penetrate into the brain of rats"}
    ]}
  ]
}
